According to patent US11015061B2, “Phthalocyanine-based compound and uses of same” (YAMAMOTO CHEMICALS, INC., priority 2017, dated 2021):

Tests used:
Format in all cases: physicochemical
[1] = Tts (total solar transmittance) of heat ray shielding film; settings: heat ray shielding film (5 g compound, 50 g acryl resin LP-45M, 2.5 μm on PET) on 3 mm glass plate; JIS R3106
From the text: The phthalocyanine compound (Specific Example (1)-30) produced in Example 1 (5 g), 50 g of an acryl resin LP-45M (trade name, produced by Soken Chemical & Engineering Co., Ltd.), 20 g of methyl ethyl ketone, and 20 g of toluene were mixed and stirred together, thereby producing a resin composition.
As a transparent substrate, a polyethylene terephthalate film (PET film) having a thickness of 100 μm was bar-coated with the resin composition such that the thickness thereof became 2.5 μm, and then the applied resin composition was dried for 3 minutes at 100° C. Furthermore, the other surface of the PET film (surface not being coated with the resin composition) was bar-coated with a transparent acryl copolymer-based pressure sensitive adhesive such that the thickness thereof became 20 μm, and the applied pressure sensitive adhesive was dried and cured for 3 minutes at 100° C. Thereafter, a release film was bonded to the surface of the pressure sensitive adhesive, thereby producing a heat ray shielding film.
In the evaluation test, the release film was peeled from the produced heat ray shielding film, then the heat ray shielding film was compressed on a 5 cm×5 cm×3 mm (thickness) glass plate, and a test piece created in this way was used.
By using U-3500 type recording spectrophotometer produced by Hitachi, Ltd. as a measurement instrument, Tts of the laminated glass sample was measured based on JIS R3106 “Testing method for transmittance, reflectance, emissivity, and solar heat gain coefficient of flat glasses”.
Tts (Total solar energy transmitted through a glazing) represents a total solar transmittance.

[2] = Heat resistance test of laminated glass; settings: 200 hours at 100° C., absorbance integrated 400 to 900 nm
Description: (§1) The phthalocyanine-based compound (Specific Example (1)-30) produced in Example 1 (0.013 g) was dissolved in 40 g of triethylene glycol-di-2-ethylhexanoate as an organic ester plasticizer. The obtained solution was added to 100 g of a polyvinyl butyral resin (trade name: BH-3, produced by SEKISUI CHEMICAL CO., LTD.), thoroughly melted and kneaded using a mixing roll, and extruded using an extruder, thereby obtaining an interlayer having a thickness of 0.76 mm.
(§2) The interlayer was cut in size of 100 mm×100 mm, interposed between heat ray absorbing glass plates (100 mm (length)×100 mm (width)×2.0 mm (thickness)) prepared based on JIS R3208, put into a rubber bag, and deaerated for 20 minutes at a degree of vacuum of 2.6 kPa. Then, the deaerated laminate was moved into an oven and further hold for 30 minutes at 90° C. to vacuum press. Thereafter, the laminate was compressed for 20 minutes in an autoclave under the condition of a temperature of 130° C. and a pressure of 1.3 MPa, thereby obtaining a laminated glass sample.
For a heat resistance test, the laminated glass used for measuring the spectrum before test as described above was treated with heat for 200 hours at a temperature of 100° C. in a thermostat (produced by Yamato Scientific co., ltd.: IG400). By using the spectrophotometer, the absorption spectrum of the heat-treated laminated glass was measured and adopted as a spectrum after heat resistance test.
(§3) In each of the spectra measured as above before and after the light fastness⋅heat resistance test, the values of absorbance within a range of 400 to 900 nm were integrated, and a difference between the integrated value before the light fastness⋅heat resistance test and the integrated value after the light fastness⋅heat resistance test was calculated.
(§4) The difference ΔE between the absorbance before the light fastness⋅heat resistance test and the absorbance after the light fastness⋅heat resistance test is expressed by the following equation. ΔE (%)={E(400 to 900 nm in E1)−E(400 to 900 nm in E2)}/E(400 to 900 nm in E1)×100
(§5) E1 represents the spectrum before test, E2 represents the spectrum after test, and Σ represents integration of values of absorbance. The larger the value of ΔE, the greater the spectrum change between before and after the light fastness⋅heat resistance test.

[3] = Solubility in organic solvent (cyclopentanone); settings: about 10 wt % dispersion, room temperature, 0.2 μm filter; no residue = 10 wt % or more
Description: The solubility of the phthalocyanine compound with respect to cyclopentanone was measured by the following method.
Cyclopentanone was added to about 1 g of the phthalocyanine compound such that the total weight thereof became about 10 g, and the obtained solution was irradiated with ultrasonic waves for about 30 minutes and then stirred for 2 hours at room temperature, thereby preparing a dispersion liquid of about 10 wt %.
The dispersion liquid was filtered through a membrane filter (0.2 μm), the substance obtained by filtration was dried for 1 hour in a drier at 60° C., and then the weight of the substance obtained by filtration was measured.
The solubility of the phthalocyanine compound in a solvent is expressed by the following equation. Solubility (wt %)=(W0−W1)/W0
W0 represents the correct weight of the phthalocyanine not yet being treated, and W1 represents the weight of the substance obtained by filtration (dissolved phthalocyanine compound residue) having been dried.

[4] = Light fastness test of laminated glass; settings: xenon light 200 hours at 550 W/h, absorbance integrated 400 to 900 nm
Description: as §1, §2
For a light fastness test, the absorption spectrum of the laminated glass was measured using a spectrophotometer (produced by Hitachi, Ltd.: Spectrophotometer U-3500) and adopted as a spectrum before light fastness test. Then, the laminated glass used for measuring the spectrum before test was irradiated with light for 200 hours at 550 W/h by using a xenon light fastness tester (produced by Toyo Seiki Seisaku-sho, Ltd.: SUNTEST XLS+). The absorption spectrum of the laminated glass irradiated with light was measured using the spectrophotometer and adopted as a spectrum after light fastness test.
as §3, §4, §5

[5] = Visible light transmittance of chloroform solution; settings: spectrum converted to transmittance 10% at near-infrared maximum absorption wavelength
Description: The visible light transmittance of the phthalocyanine-based compound of the present invention and the comparative example compounds was measured by the following measurement method.
Each of the phthalocyanine compounds ([…]) and approximately 90 mL of chloroform were put into a 100 mL volumetric flask, and the solution in the flask was irradiated with ultrasonic waves for 30 minutes and left to stand for 2 hours at room temperature. Then, chloroform was added thereto such that the meniscus of the solution matched up with the calibration mark on the volumetric flask, thereby preparing a 10 mg/L phthalocyanine solution. The prepared solution was put into a 1 cm×1 cm cell made of PYREX (registered trademark), and the absorption spectrum thereof was measured using a spectrophotometer (produced by Hitachi, Ltd.: Spectrophotometer U-3500).
The absorption spectrum measured as above was converted such that the absorbance became 1.0, that is, the transmittance became 10% at the maximum absorption wavelength in a near-infrared range, thereby obtaining a transmission spectrum. […] At 460 nm, the transmittance of the compound of the present invention was approximately the same as the transmittance of Comparative Examples 1 and 2.

[6] = Absorption spectrum of toluene solution (maximum absorption, gram absorption coefficient); settings: for gram absorption coefficient: at maximum absorption
Description: A toluene solution of the compound obtained in this way had maximum absorption at 734.0 nm, and the gram absorption coefficient thereof was 1.21×10^5 mL/g·cm. The absorption spectrum chart thereof is illustrated in FIG. 1.

| Tts [1] | ΔE (%) Heat resistance [2] | Solubility to cyclopentanone (wt %) [3] | ΔE (%) Light fastness [4] | Transmittance (%) 460 nm [5] | Transmittance (%) 610 nm [5] | maximum absorption [6] | gram absorption coefficient [6] | SMILES |
| --- | --- | --- | --- | --- | --- | --- | --- | --- |
| 85.6% | 3% | ≥10% wt % | 3% | 98.3% | 89.0% | 734.5 nm | 67500 mL/g/cm | COc1cccc(OC)c1OCCCCc1ccc(CCCCOc2c(OC)cccc2OC)c2c1-c1nc-2nc2[n-]c(nc3nc(nc4[n-]c(n1)c1c(CCCCOc5c(OC)cccc5OC)ccc(CCCCOc5c(OC)cccc5OC)c41)-c1c(CCCCOc4c(OC)cccc4OC)ccc(CCCCOc4c(OC)cccc4OC)c1-3)c1c(CCCCOc3c(OC)cccc3OC)ccc(CCCCOc3c(OC)cccc3OC)c21.[O]=[V+2] [Specific Example (1)-44] |
| 85.9% | 3% | ≥10% wt % | 4% | 97.7% | 88.1% | 735.5 nm | 74000 mL/g/cm | COc1cccc(OCCCCc2ccc(CCCCOc3cccc(OC)c3)c3c2-c2nc-3nc3[n-]c(nc4nc(nc5[n-]c(n2)c2c(CCCCOc6cccc(OC)c6)ccc(CCCCOc6cccc(OC)c6)c52)-c2c(CCCCOc5cccc(OC)c5)ccc(CCCCOc5cccc(OC)c5)c2-4)c2c(CCCCOc4cccc(OC)c4)ccc(CCCCOc4cccc(OC)c4)c32)c1.[O]=[V+2] [Specific Example (1)-39] |
| 86.1% | 6% | ≥10% wt % | 5% | 98.1% | 88.4% | 734.0 nm | 121000 mL/g/cm | COCCCCc1ccc(CCCCOC)c2c1-c1nc-2nc2[n-]c(nc3nc(nc4[n-]c(n1)c1c(CCCCOC)ccc(CCCCOC)c41)-c1c(CCCCOC)ccc(CCCCOC)c1-3)c1c(CCCCOC)ccc(CCCCOC)c21.[O]=[V+2] [Specific Example (1)-30] |
| 85.9% | 2% | ≥10% wt % | 2% | 99.4% | 88.0% | 706.5 nm | 67800 mL/g/cm | COc1cccc(OCCCCc2ccc(CCCCOc3cccc(OC)c3)c3c2-c2nc-3nc3[n-]c(nc4nc(nc5[n-]c(n2)c2c(CCCCOc6cccc(OC)c6)ccc(CCCCOc6cccc(OC)c6)c52)-c2c(CCCCOc5cccc(OC)c5)ccc(CCCCOc5cccc(OC)c5)c2-4)c2c(CCCCOc4cccc(OC)c4)ccc(CCCCOc4cccc(OC)c4)c32)c1.[Cu+2] [Specific Example (1)-40] |
